Data: article PMC10518255, “A first-in-class pan-lysyl oxidase inhibitor impairs stromal remodeling and enhances gemcitabine response and survival in pancreatic cancer” (Nature Cancer, 2023)
Several values for one entry are separate records, joined by “and”; a condition that tells them apart may be missing. Equal values may be shown once.

Tested on: Lysyl oxidase family activity in aorta
Assay: Lysyl oxidase family activity in aorta of KPC tumor bearing mice at end point, fluorometric activity assay
Assay type: in vivo, mouse
Conditions: for Lysyl oxidase family activity measured in the aorta of KPC tumour bearing mice at endpoint (signal over noise): Extended Data 5A, fluorometric activity assay, noise measured with 300 µM ßAPN, individual animals
Description: KPC mice were treated from the time at which palpable tumors were detected (typically 10 to 12 weeks of age) and continued until the study end point. Mice were treated daily with PXS-5505 (20 mg kg^−1 i.p.) or vehicle (0.9% saline) and twice weekly with gemcitabine (100 mg kg^−1 i.p.) or vehicle (0.9% saline).
Extended Data Fig. 5 PXS-5505 in combination with gemcitabine in vivo. a. […] Signal is defined as the enzyme activity in the aorta, while noise is measured in the presence of a high concentration (300 µM) BAPN to abolish any lysyl oxidase family activity. […] Data presented as mean values +/− SD b. […] Data presented as mean values +/− SD. c. FITC-dextran (molecular weight: 10 kDa) signal quantification from KPC tumor end point from each treatment group (vehicle n = 3 biologically independent animals, PXS-5505 n = 5 biologically independent animals, Gem n = 5 biologically independent animals, PXS-5505 + Gem n = 5 biologically independent animals). 4 ROIs taken per mouse. P-values determined by Welchs t-test. Data presented as mean values +/− SD. Scale bars = 100 μm d. Quantification of red birefringent (mature) collagen fibers from human PDXs at end point after 3 cycles of treatment, treated as indicated. […] Data presented as mean values +/− SD. Scale bars = 100 μm e. Quantification of bulk modulus (stiffness) by unconfined compression testing of end point human PDX tumors from each treatment group (vehicle n = 5 biologically independent animals, Gem n = 5 biologically independent animals, PXS-5505 n = 5 biologically independent animals, PXS-5505 + Gem n = 5 biologically independent animals) [individual tumors shown]). […] FITC-dextran (molecular weight 10 kDa) signal quantification from human PDXs from each treatment group (vehicle n = 4 biologically independent animals, PXS-5505 n = 5 biologically independent animals, Gem n = 5 biologically independent animals, PXS-5505 + Gem n = 5 biologically independent animals). […] P values determined by Welchs t-test. g. […] Quantification of green birefringent (nascent) collagen fibers from human PDXs at end point, treated as indicated. […]

Structure (SMILES) | Lysyl oxidase family activity measured in the aorta of KPC tumour bearing mice at endpoint (signal over noise) | lysyl oxidase family activity in the aorta at end point (KPC tumor bearing mice)
Nc1ccn([C@@H]2O[C@H](CO)[C@@H](O)C2(F)F)c(=O)n1 [Gem, gemcitabine] | 2.059 and 2.616 and 2.089 and 2.043 and 2.04 and 2.065 and 2.364 | –
Cl.Cl.NC/C=C(\F)CS(=O)(=O)c1cccc2cccnc12.O [PXS-5505, (Z)-3-fluoro-4-(quinolin-8-ylsulfonyl)but-2-en-1-amine dihydrochloride monohydrate] | 1.144 and 1.3025 and 1.519 and 1.787 and 1.62 and 1.558 | confirming lysyl oxidase family inhibition
